Experiments:
[1] = Lipophilicity by reversed-phase thin-layer chromatography (RP-TLC), isopropanol-water mobile phase; format: physicochemical; settings: RP-18F254s TLC, iso-propanol-water 45-65% (v/v); for RM0 (lipophilicity estimation parameter, intercept of RM = RM0 + bC): extrapolated to pure water
Procedure: Some of the parameters resulting from a RP-TLC may be associated to the lipophilic character of the analytes. The retention parameters (RM) are calculated by means of well-known Batte-Smith and Westall Equation (1): RM = log (1/RF − 1) (1)
Generally, the RM values determined by RP-TLC are linearly dependent on the concentration of the organic modifier (C) in the mobile phase Equation (2): RM = RM0 + bC (2) where b and RM0 are, respectively, the slope and the intercept of Equation (2). […] Additionally, it has been stated that not only the RM0, but also the slope, b, as a characteristic of the specific hydrophobic surface area of the compounds, can be used as an estimation of lipophilicity. The advantages of TLC methods consist in the small quantity of compounds needed for the determination, and the rapidity and simplicity of the method. Also, they are inexpensive, rapid and easy to perform.
Chromatography was performed on 20 × 20 cm RP-18F254s TLC precoated silica plates (Merck; Darmstadt, Germany). Solutions (1 mg/mL) of the tested compounds were prepared in iso-propanol, and 3 μL aliquots were spotted in duplicate on the plates by hand, 10 mm from the bottom edge and 20 mm apart. The mobile phases were composed of the iso-propanol-water binary mixtures, with a varying content of organic modifier between 45% and 65% (v/v) in 5% increments, as the study compounds differed considerably in their retention. Chromatography was performed in a normal developing chamber at room temperature, the developing distance being 10 cm. The chromatography chamber was saturated with the mobile phase for 30 min before use. After the development (30–60 min), the plates were air dried at room temperature and examined under a UV lamp (λ = 254 nm), and the RF (retardation factor) values were measured manually by a digital caliper. The experiments were performed in triplicate.

[2] = tested on: turpentine oil-induced inflammation; design: method as in PMID 23504664; Leukocytes (L, leukocytes count):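 lower leukocyte count means stronger anti-inflammatory effect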; settings: cited from earlier work; for Leukocytes (L, leukocytes count) / PMN (polymorphonuclear leukocytes, differential leucocyte count): mean ± SD
oxidative stress = tested on: oxidative stress; design: method as in PMID 23504664; settings: turpentine oil-induced inflammation, mean ± SD; cited from earlier work
phagocytes = tested on: phagocytes; design: method as in PMID 23504664; settings: turpentine oil-induced inflammation, mean ± SD; cited from earlier work
[3] = tested on: nitric oxide (NO) synthesis; design: method as in PMID 23504664; unit not given here; settings: turpentine oil-induced inflammation, mean ± SD; cited from earlier work

Q: For `C=CCn1c(S)nnc1-c1sc(-c2ccc(C)cc2)nc1C` [Th-16], which “b (slope of RM = RM0 + bC, specific hydrophobic surface area)” value [1] is on record?
A: −2.962

Q: What about the “RM0 (lipophilicity estimation parameter, intercept of RM = RM0 + bC)” value [1] of the same compound?
A: 1.783

Q: And the “Leukocytes (L, leukocytes count)” value [2]?
A: 9225 ± 333

Q: And the “PMN (polymorphonuclear leukocytes, differential leucocyte count)” value [2]?
A: 77.4 ± 1.9%

Q: And the “OSI (oxidative stress index)” value (oxidative stress)?
A: 6.04 ± 4.1

Q: And the “TAR (total antioxidant response)” value (oxidative stress)?
A: 1.103 ± 0.009

Q: And the “TOS (total oxidative status)” value (oxidative stress)?
A: 66.681 ± 9.1

Q: What about the “PA (phagocytic activity)” value (phagocytes) of the same compound?
A: 27 ± 1.1

Q: What about the “PI (phagocytosis index)” value (phagocytes) of the same compound?
A: 21.2 ± 1.0%

Q: And the “NO (nitric oxide synthesis)” value [3]?
A: 63.091 ± 5.1

Q: For `C=CCn1c(S)nnc1-c1sc(-c2ccc(Br)cc2)nc1C` [Th-17], which “b (slope of RM = RM0 + bC, specific hydrophobic surface area)” value [1] is on record?
A: −4.737

Q: And the “RM0 (lipophilicity estimation parameter, intercept of RM = RM0 + bC)” value [1]?
A: 2.808

Q: What about the “Leukocytes (L, leukocytes count)” value [2] of the same compound?
A: 10,147.5 ± 528

Q: And the “PMN (polymorphonuclear leukocytes, differential leucocyte count)” value [2]?
A: 75.4 ± 5.2%

Q: What about the “OSI (oxidative stress index)” value (oxidative stress) of the same compound?
A: 6.38 ± 5.2

Q: What about the “TAR (total antioxidant response)” value (oxidative stress) of the same compound?
A: 1.093 ± 0.003

Q: And the “TOS (total oxidative status)” value (oxidative stress)?
A: 69.962 ± 5.2

Q: What about the “PA (phagocytic activity)” value (phagocytes) of the same compound?
A: 19.5 ± 0.9

Q: What about the “PI (phagocytosis index)” value (phagocytes) of the same compound?
A: 15 ± 3.5%

Q: What about the “NO (nitric oxide synthesis)” value [3] of the same compound?
A: 60.479 ± 11.8

Q: With `Cc1nc(-c2ccccc2)sc1-c1nnc(S)o1` [Th-18] as the compound, how does the “b (slope of RM = RM0 + bC, specific hydrophobic surface area)” value [1] read?
A: −1.840

Q: What about the “RM0 (lipophilicity estimation parameter, intercept of RM = RM0 + bC)” value [1] of the same compound?
A: 0.540

Q: What about the “Leukocytes (L, leukocytes count)” value [2] of the same compound?
A: 4575 ± 805

Q: What about the “PMN (polymorphonuclear leukocytes, differential leucocyte count)” value [2] of the same compound?
A: 63.7 ± 2.4%

Q: What about the “OSI (oxidative stress index)” value (oxidative stress) of the same compound?
A: 6.98 ± 4.1

Q: And the “TAR (total antioxidant response)” value (oxidative stress)?
A: 1.118 ± 0.006

Q: What about the “TOS (total oxidative status)” value (oxidative stress) of the same compound?
A: 78.089 ± 14.1

Q: What about the “PA (phagocytic activity)” value (phagocytes) of the same compound?
A: 56 ± 8.6

Q: And the “PI (phagocytosis index)” value (phagocytes)?
A: 17 ± 1.9%

Q: What about the “NO (nitric oxide synthesis)” value [3] of the same compound?
A: 43.23 ± 3.9

Q: With `Cc1ccc(-c2nc(C)c(-c3nnc(S)o3)s2)cc1` [Th-19] as the compound, how does the “b (slope of RM = RM0 + bC, specific hydrophobic surface area)” value [1] read?
A: −1.134

Q: What about the “RM0 (lipophilicity estimation parameter, intercept of RM = RM0 + bC)” value [1] of the same compound?
A: 0.286

Q: What about the “Leukocytes (L, leukocytes count)” value [2] of the same compound?
A: 7443.75 ± 1172

Q: And the “PMN (polymorphonuclear leukocytes, differential leucocyte count)” value [2]?
A: 72.8 ± 5.0%

Q: And the “OSI (oxidative stress index)” value (oxidative stress)?
A: 7.13 ± 5.9

Q: And the “TAR (total antioxidant response)” value (oxidative stress)?
A: 1.119 ± 0.009

Q: What about the “TOS (total oxidative status)” value (oxidative stress) of the same compound?
A: 79.849 ± 12

Q: And the “PA (phagocytic activity)” value (phagocytes)?
A: 13.5 ± 2.78

Q: And the “PI (phagocytosis index)” value (phagocytes)?
A: 20 ± 1.5%

Q: What about the “NO (nitric oxide synthesis)” value [3] of the same compound?
A: 45.198 ± 2.2

Q: What does the source list for `Cc1nc(-c2ccc(Br)cc2)sc1-c1nnc(S)o1` [Th-20]?
A: b (slope of RM = RM0 + bC, specific hydrophobic surface area) [1]: −1.283; RM0 (lipophilicity estimation parameter, intercept of RM = RM0 + bC) [1]: 0.393; Leukocytes (L, leukocytes count) [2]: 4837.5 ± 1305; PMN (polymorphonuclear leukocytes, differential leucocyte count) [2]: 59.2 ± 5.6%; OSI (oxidative stress index) (oxidative stress): 7.32 ± 3.2; TAR (total antioxidant response) (oxidative stress): 1.106 ± 0.003; TOS (total oxidative status) (oxidative stress): 81.022 ± 13.2; PA (phagocytic activity) (phagocytes): 20 ± 1.5; PI (phagocytosis index) (phagocytes): 16 ± 3.0%; NO (nitric oxide synthesis) [3]: 43.288 ± 5.0

Q: Which “b (slope of RM = RM0 + bC, specific hydrophobic surface area)” value [1] does the source give for `Cc1nc(-c2ccccc2)sc1-c1nnc(S)s1` [Th-21] here?
A: −1.286

Q: And the “RM0 (lipophilicity estimation parameter, intercept of RM = RM0 + bC)” value [1]?
A: 0.620

Q: And the “Leukocytes (L, leukocytes count)” value [2]?
A: 3000 ± 241

Q: What about the “PMN (polymorphonuclear leukocytes, differential leucocyte count)” value [2] of the same compound?
A: 52.6 ± 2.1%

Q: And the “anti-inflammatory and antioxidant effects (in words)” value ([2]; overall ranking within the series)?
A: best anti-inflammatory and antioxidant effects

Q: What about the “OSI (oxidative stress index)” value (oxidative stress) of the same compound?
A: 6.03 ± 4.5

Q: What about the “TAR (total antioxidant response)” value (oxidative stress) of the same compound?
A: 1.114 ± 0.007

Q: What about the “TOS (total oxidative status)” value (oxidative stress) of the same compound?
A: 67.137 ± 10.6

Q: And the “PA (phagocytic activity)” value (phagocytes)?
A: 23 ± 1.9

Q: And the “PI (phagocytosis index)” value (phagocytes)?
A: 14.5 ± 4.6%

Q: What about the “NO (nitric oxide synthesis)” value [3] of the same compound?
A: 43.737 ± 6.2

Q: With `Cc1ccc(-c2nc(C)c(-c3nnc(S)s3)s2)cc1` [Th-22] as the compound, how does the “b (slope of RM = RM0 + bC, specific hydrophobic surface area)” value [1] read?
A: −1.227

Q: What about the “RM0 (lipophilicity estimation parameter, intercept of RM = RM0 + bC)” value [1] of the same compound?
A: 0.701

Q: And the “Leukocytes (L, leukocytes count)” value [2]?
A: 5812.5 ± 399

Q: What about the “PMN (polymorphonuclear leukocytes, differential leucocyte count)” value [2] of the same compound?
A: 66.4 ± 0.8%

Q: And the “OSI (oxidative stress index)” value (oxidative stress)?
A: 5.13 ± 4.9

Q: What about the “TAR (total antioxidant response)” value (oxidative stress) of the same compound?
A: 1.105 ± 0.001

Q: And the “TOS (total oxidative status)” value (oxidative stress)?
A: 56.694 ± 7.9

Q: What about the “PA (phagocytic activity)” value (phagocytes) of the same compound?
A: 23.5 ± 0.9

Q: And the “PI (phagocytosis index)” value (phagocytes)?
A: 35 ± 8.2%

Q: What about the “NO (nitric oxide synthesis)” value [3] of the same compound?
A: 52.08 ± 8.1
